Data published in US12275685B2, “Oligo-benzamide analogs and their use in cancer treatment” (Board of Regents, The University of Texas System, priority 2018, dated 2025).

Experiments:
lipase activity of LIPA = biological target: T1, lipase activity of LIPA (Homo sapiens, UniProt P38571); assay: Lipase activity assay; assay type: biochemical; conditions: SUM-159 cells
T1 construct: lipase activity of parental SUM-159 (WT) and SUM-159 cells with LIPA KO; endogenous in cells; host or cells: SUM-159 (parental)
T1 sequence (P38571 77-399): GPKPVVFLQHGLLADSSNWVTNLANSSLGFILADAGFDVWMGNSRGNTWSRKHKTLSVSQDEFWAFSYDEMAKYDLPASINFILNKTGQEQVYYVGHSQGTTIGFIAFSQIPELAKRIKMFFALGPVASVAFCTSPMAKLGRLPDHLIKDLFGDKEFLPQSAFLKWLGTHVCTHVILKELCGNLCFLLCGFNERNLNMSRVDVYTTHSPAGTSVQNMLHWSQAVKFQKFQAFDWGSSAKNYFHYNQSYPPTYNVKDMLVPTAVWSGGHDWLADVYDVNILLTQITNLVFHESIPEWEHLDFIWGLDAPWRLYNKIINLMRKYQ
From the text: FIGS. 39A-N: (FIGS. 39A-E) Predicted binding mode of ERX-41 (colored in green) on the human lysosomal acid lipase (LAL, PDB code: 6V7N, LXXLL (SEQ ID NO: 1) domain colored in orange). (FIG. 39F) PDB structure of LAL protein showing relative positions of the catalytic domain (with H274Y MT) and the LXXLL (SEQ ID NO: 1) domain (L242P MT). (FIG. 39G) Evaluation of the effect of ERX-41 and lalistat (known lipase inhibitor) on lipase activity of parental SUM-159 (WT) and SUM-159 cells with LIPA KO. (FIG. 39H) Evaluation of basal lipase activity in parental SUM-159 (WT), SUM-159 cells with LIPA KO (KO), SUM-159 cells with LIPA KO and with reconstitution of either WT LIPA (KO+WT), H274Y MT-LIPA (KO+H274Y), DLXXLL (SEQ ID NO: 2) MT-LIPA (KO+DLXXLL (SEQ ID NO: 2)) or L242P MT-LIPA (KO+L242P). Protein expression of LAL and control vinculin in these cells are shown below (FIG. 391) Cellular lysates from described SUM-159 cells were incubated with biotinylated ERX-11 or biotinylated ERX-41 and then subject to a streptavidin column. Elutants were then evaluated for LIPA pulldown by western blotting. (FIG. 39J) Dose response curve to increasing concentrations of ERX-41 in described SUM-159 cells. (FIGS. 39K-M) Effect of vehicle or 1 μM ERX-41 on induction of UPR genes at the protein level (FIG. 39K) or RNA level (FIGS. 39L-M). […]

[1] = system: estrogen receptor-positive, estrogen receptor-negative and therapy resistant ERMT cells; assay: MTT assay of TK41 on breast cancer cells; assay type: cell-based
Method: FIGS. 2A-2C show the potency of TK41 (IC50 from 50-500 nM) on estrogen receptor-positive (FIG. 2A), estrogen receptor-negative (FIG. 2B) and therapy resistant ERMT (FIG. 2C) cells determined by MTT assay.

[2] = system: 22 human preclinical TNBC cell line models; assay: CellTiter-Glo cell viability assay in TNBC cell lines; assay type: cell-based; conditions: 22 TNBC cell lines, read-out: IC50, CellTiter-Glo cell viability assays
From the text: FIGS. 34A-C: Dose response curve of ERX-41 in multiple TNBC. cell lines using WST-1 assays (FIG. 34A) and CellTiter-Glo assays (FIG. 34B). […] Quantification of the number of dead cells over time seen with live cell imaging in MDAMB-231 and HMEC cells is shown.
To evaluate the generalizability of the inventors' findings, they evaluated ERX-41 in a large number of TNBC and ERa-positive cell lines.

SMILES: CC(C)COc1cc(C(=O)Nc2ccc(C(=O)N[C@H]3CC[C@H](C)CC3)cc2OCC(C)C)ccc1NC(=O)c1ccc([N+](=O)[O-])c(OCCO)c1 [TK41]
- effect on lipase activity of LIPA (lipase activity of LIPA): no inhibition of lipase activity
- IC50 ([1]; ER-positive, ER-negative and therapy resistant ERMT cells, MTT assay): 50 to 500 nM
- effect on endocrine therapy resistant breast cancer cells ([1]; endocrine therapy resistant breast cancer cells): very effective
- IC50 [2]: < 250 nM
